Results on 1 compound are retold here after US12691094B2, “Use of Crassifolin A in preparation of drug for promoting mitophagy and treating neurodegenerative diseases” (JINAN UNIVERSITY, priority 2021, dated 2026).

Experiment [1] relates to Tau model mice. Briefly: Morris water maze test of learning memory. Conditions: 10-month-old Tau model mice, oral 20 mg/kg for 3 consecutive months. It counts as in vivo.
Experiment [2] has as its system Hela-mt-Keima cells. Briefly: Flow cytometry of Hela-mt-Keima cells for screening a mitophagy drug. It counts as cell-based. Conditions: 10 μM JGX-1+10 μM FCCP (FIG. 1 legend: JGX-1 10 μM). From the text:
The Keima fluorescent protein derived from anthozoan has a pH value-dependent bimodal excitation spectrum, that is, Keima can be excited to emit green fluorescence at neutral pH and acidic pH and red fluorescence under the excitation of light with a wavelength of 440 nm and 586 nm, respectively. Since mitochondria that undergo autophagy eventually enter acidic lysosomes, Keima with the mitochondrial localization (mitocondrial Keima, mt-Keima) can indicate the mitochondria that enter the lysosomes via the autophagic pathway. The specific procedure of this experiment is as follow:
Inoculation of Hela-mt-Keima cells into a 24-well plate at a density of 5×10^4, and then adding 1 mL of DMEM medium containing 10% (v/v) fetal bovine serum (FBS) to them to culture for 24 h; after 24 h, respectively adding 0.1% (v/v) DMSO (dimethyl sulfoxide), with DMSO (10 μM) as a solvent control group (DMSO), 10 μM of mitochondrial uncoupling agent (FCCP) (sigma) as a positive drug control group, and 10 μM JGX-1+10 μM FCCP as an experimental group, each group having 3 replicates; collecting cells on the third day by centrifugation at 1000×g for 3 min, resuspending in 0.5 mL of PBS buffer, sieving at 40 μm on the machine, collecting 5×10^4 cells by flow cytometry, recording the collection time, 405 nm/Qdot605-A, 561 nm/PE-Texas Red-A, and calculating MI=561/405+561.
A general note: Flow cytometry measures light scatter and fluorescence of single cells or particles in a stream.

Experiment [3] concerns pTAU (202). Briefly: Western blot of phosphorylated Tau in hSY5Y cells. The settings on record: JGX-1 10 μmol/L, 24 h. It counts as cell-based.
Source text: • a. […]
In general terms: Immunoblotting shows a protein as a band on a membrane.

Experiment [4] relates to Hela-mt-Keima cells. Briefly: Detection of mitophagy in Hela-mt-Keima cells by confocal microscopy. It counts as cell-based. Conditions: 10 μM JGX-1, 8 h. An excerpt: The Keima fluorescent protein derived from anthozoan has a pH value-dependent bimodal excitation spectrum, that is, Keima at neutral pH and acidic pH can be excited to emit green fluorescence and red fluorescence under the excitation of light with a wavelength of 440 nm and 586 nm, respectively. Since mitochondria that undergo autophagy eventually enter acidic lysosomes, Keima with the mitochondrial localization (mitochondrial Keima, mt-Keima) can indicate the mitochondria that enter the lysosomes via the autophagic pathway. The specific procedure of this experiment is as follows:
Inoculation of Hela-mt-Keima cells into 12 laser confocal cell culture dishes at a density of 1×10^4, and then adding 1 mL of DMEM medium containing 10% (v/v) FBS; after 5 h, changing the solution, and dividing into a solvent control group (DMSO), a positive drug control group (10 μM FCCP), an experimental group 1 (10 μM JGX-1+10 μM FCCP) and an experimental group 2 (10 μM JGX-1), with 3 replicates in each group; incubating cells in a 5% (v/v) CO2 cell culture incubator at 37° C.; after 8 h, observing the changes in the excitation fluorescence signals of the 458 nm channel (indicating Keima at neutral pH) and the 561 nm channel (indicating Keima at acidic pH) under a laser confocal microscope, randomly selecting 3 fields of view to take photos, and then statistically plotting.

Experiment [5] has as its system LC3B. Briefly: Western blot of LC3B in hSY5Y cells. It counts as cell-based. The settings on record: JGX-1 10 μmol/L, 24 h.
Source text: • a. […]

SMILES strings stand for the structures.

Take `COC(=O)[C@]1(C)CCCC2=C1CC[C@@H](C)[C@]2(C)CCC1=CC(=O)OC1` [JGX-1, Crassifolin A]: in experiment [1], the “dementia symptoms in the model mice” value is on record as “alleviated” and the “learning memory of AD model mice” value is recorded as “improved effect”. Besides, in experiment [2], the “mitophagy (flow cytometry, MI=561/405+561)” value was “enhance mitophagy”. Also, the “expression of phosphorylated Tau” value in experiment [3] is “inhibited”. Besides, in experiment [4], the “mitophagy (confocal live cell imaging)” value is recorded as “enhance mitophagy”. In addition, the “expression of autophagic LC3B” value in experiment [5] is “enhanced”.
